The supplement of paper PMC8024199
± gives the standard deviation of the averaged measurements.

Assays:
Test in all cases: drug sensitivity score (DSS) (DSS score); higher = more sensitive (stronger growth inhibition); extreme values may be limits of the assay
[1] = test system: Ba/F3 P210-BCR-ABL1 RUNX1-/mut (mouse)
In short: (§1)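 A drug sensitivity score summarised each dose-response curve, with luminescence from CellTiter-Glo scaled between vehicle and positive-control wells. Values are the mean of two replicates. The cells were mouse Ba/F3 clones that were CRISPR/Cas9-edited at a target exon or were edited controls, exposed on pre-printed 384-well plates to a 528-compound library at five concentrations spanning a 10,000-fold range. Plates held 10,000 cells per well in RPMI with 10% FBS for 72 h at 37 °C and 5% CO2.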

[2] = test system: Ba/F3 P210-BCR-ABL1 RUNX1-/- (mouse)
In short: as §1

[3] = test system: Ba/F3 P210-BCR-ABL1 RUNX1wt/wt control (mouse)
In short: as §1

Structure (SMILES)	drug sensitivity score [1]	drug sensitivity score [2]	drug sensitivity score [3]
CN(C)C(=O)c1cc2cnc(Nc3ccc(N4CCNCC4)cn3)nc2n1C1CCCC1 [Ribociclib]	1.85 ± 2.5	4.6 ± 2.3	0
CO[C@H]1C[C@@H]2CC[C@@H](C)[C@@](O)(O2)C(=O)C(=O)N2CCCC[C@H]2C(=O)O[C@H]([C@H](C)C[C@@H]2CC[C@@H](OP(C)(C)=O)[C@H](OC)C2)CC(=O)[C@H](C)/C=C(\C)[C@@H](O)[C@@H](OC)C(=O)[C@H](C)C[C@H](C)/C=C/C=C/C=C/1C [Ridaforolimus]	15.7 ± 2.7	13.3 ± 3.8	0.15 ± 0.21
COc1cc(OC)c(/C=C/S(=O)(=O)Cc2ccc(OC)c(NCC(=O)O)c2)c(OC)c1 [Rigosertib]	27.05 ± 0.071	26.8 ± 1.1	15.6 ± 1.4
C[C@H]1CNCCCN1S(=O)(=O)c1cccc2cncc(F)c12 [Ripasudil]	0	0	0
C=CC(=O)Nc1cccc(Nc2nc(Nc3ccc(N4CCN(C(C)=O)CC4)cc3OC)ncc2C(F)(F)F)c1 [Rociletinib]	7.45 ± 0.071	8.6 ± 1.6	4.4 ± 0.42
O=C(CCCCCCNC(=O)c1cnc(N(c2ccccc2)c2ccccc2)nc1)NO [Rocilinostat]	9.05 ± 2.2	10.2 ± 1.5	6.25 ± 0.071
C/C=C1\NC(=O)[C@H]2CSSCC/C=C/[C@H](CC(=O)N[C@H](C(C)C)C(=O)N2)OC(=O)[C@H](C(C)C)NC1=O [Romidepsin]	27.6 ± 2.7	29.85 ± 0.071	29.4 ± 0.42
Cc1nc(C(=O)NCC(=O)O)c(O)c2ccc(Oc3ccccc3)cc12 [Roxadustat]	0.95 ± 1.3	0.6 ± 0.85	0
CN(C)C[C@@H]1CCn2cc(c3ccccc32)C2=C(C(=O)NC2=O)c2cn(c3ccccc23)CCO1 [Ruboxistaurin]	9.25 ± 2.2	9.7 ± 0.28	7.7 ± 0.99
N#CC[C@H](C1CCCC1)n1cc(-c2ncnc3[nH]ccc23)cn1 [Ruxolitinib]	1.45 ± 2	2.2 ± 0.71	0
CC(C)N(CCCNC(=O)Nc1ccc(C(C)(C)C)cc1)C[C@H]1O[C@@H](n2cc(Br)c3c(N)ncnc32)[C@H](O)[C@@H]1O [SGC0946]	3.7 ± 5.2	3.45 ± 2.3	0
COc1ccc(CCc2nc3cc(-c4c(C)noc4C)ccc3n2C[C@H](C)N2CCOCC2)cc1Cl [SGC-CBP30]	12.7 ± 4.6	10.2 ± 2.8	5.5 ± 0.28
CN1CCC(CNc2ccc3ncc(-c4cccc(OC(F)(F)F)c4)n3n2)CC1 [SGI-1776]	9.65 ± 2.2	10.1 ± 0.71	5.2 ± 0.14
CN(CC(=O)N(Cc1ccc(C2CCCCC2)cc1)c1ccc(C(=O)O)cc1)S(=O)(=O)c1c(F)c(F)c(F)c(F)c1F [SH-4-54]	8.35 ± 5.2	8.95 ± 1.1	5.1 ± 0.14
CCc1c2c(nc3ccc(O)cc13)-c1cc3c(c(=O)n1C2)COC(=O)[C@]3(O)CC [SN-38]	29.1 ± 1.8	33.2 ± 0.99	26.9 ± 0.42
Cc1cc2c(C(=O)NC[C@H](C)c3ccccc3)c(O)c(O)cc2c(O)c1-c1c(C)cc2c(C(=O)NC[C@H](C)c3ccccc3)c(O)c(O)cc2c1O [Sabutoclax]	23.5 ± 7.5	21.8 ± 6.7	19.1 ± 0.49
CC[C@@H](C(=O)[C@@H](C)[C@@H](O)[C@H](C)[C@@H]1O[C@@H]([C@@H](CC)C(=O)O)CC[C@@H]1C)[C@H]1O[C@]2(C=C[C@@H](O)[C@]3(CC[C@@](C)([C@H]4CC[C@](O)(CC)[C@H](C)O4)O3)O2)[C@H](C)C[C@@H]1C [Salinomycin]	17.6 ± 10	19.6 ± 7.6	17 ± 8.3
CC(C)n1nc(-c2ccc3oc(N)nc3c2)c2c(N)ncnc21 [Sapanisertib]	16.6 ± 2.5	16.9 ± 0.35	11.3 ± 0.49
